Like-named read-outs stand apart in the source and are kept apart here.
Tested on: human hepatic lipase (HL) promoter (−1557 to +43) regulated through human estrogen receptor
Assay: Hepatic lipase promoter luciferase reporter assay in HepG2 cells cotransfected with human estrogen receptor and C/EBPα
Format: cell-based
Conditions: for Efficacy (%), Hepatic Lipase Inhibition: relative to 100% effect of 17β-estradiol inhibition of HL activity
Description: Cell media was replaced every 2-3 days. Confluent cells were rinsed once with phosphate-buffered saline and 5 mL of a prewarmed solution comprised of about 0.05% trypsin, by volume, and about 0.5 mM ethylenediamine tetraacetic acid was added. Cells were left at room temperature for 5 minutes and cells were then dislodged from the flask by tapping the flask 50 times. Trypsinization was halted by the addition of about 8.5 mL of growth cell culture media. Cells were transferred to a test tube and centrifuged at about 300×g for about 5 minutes. Total cells were counted and resuspended at a concentration of about 1×10^7 cells/200 μL of growth cell culture media.
The mixture was transferred to a 0.2 mL BTX disposable cuvette (P/N 620). Cells were electroporated using a BTX ECM 600 (San Diego, Calif.), at 100 V, […] and 72 Ω. Cells were left a room temperature for about 20 minutes. Approximately 20.5 mL of growth cell culture media was added to the cells. Cells were then seeded at about 200 μL per well of a 96 well plate. Cells were then incubated at about 37° C. for 4 hours.
Media was aspirated and replaced with 200 μL deficient media, which was comprised of Phenol Red Free-DMEM (Gibco BRL) supplemented with 1%, by volume, glutamax; 1%, by volume, penicillin/strepomycin; 1%, by volume, non-essential amino acids; and 10%, by volume, heat inactivated, and charcoal-stripped fetal bovine serum, containing varying concentrations of estrogen test compounds. […]
After estrogen treatment, cells were washed with phosphate-buffered saline and lysed with Cell Culture Lysis Reagent (Promega; Madison, Wis.), 50 μL/well, by shaking the plate at room temperature for about 20 minutes. From each well, 35 μL of cell lysate was transferred to a 96 lumat plate. Luciferase activity was determined by addition of 100 μL luciferase substrate and emitted light was detected with a Dentate Microfluor WHT FB using the Luciferase Assay System (Promega; Madison, Wis.). β-galactosidase activity was determined by adding 10 μL of cell lysate and 100 μL β-galactosidase light emission buffer (Tropix; Bedford Mass.) to a lumat plate. β-galactosidase activity was determined with a Microlumat LB 96P (EG&G Berthold). Emitted light, for each assay, was detected for 10 seconds.
Data were collected and analyzed with the JMP statistical program. Background RLU values were subtracted from both the luciferase and β-gal values. The data were normalized by division of the corrected luciferase values by the corrected β-gal values. […] Mean and standard deviations were determined from at least two separate experiments with an n=4 for each experiment.
Luciferase activity was determined in cell lysates.

[1] = transfected HepG2 cells, 16-24 hours treatment
[2] = transfected HepG2 cells, 16-24 hours treatment, luciferase normalized to β-gal, read-out: IC50 (nM), Hepatic Lipase Inhibition

Compound: C[C@]12CC[C@H]3C(=CCc4cc(O)ccc43)[C@@H]1CC[C@H]2O [17α-dihydroequilin]
- Efficacy (%), Hepatic Lipase Inhibition [1]: 89%
- IC50 [2]: 164 nM

Compound: C[C@]12CC[C@@H]3c4ccc(O)cc4CC[C@H]3[C@@H]1CC[C@H]2O [17α-estradiol]
- Efficacy (%), Hepatic Lipase Inhibition [1]: 69%
- IC50 [2]: 457 nM

Compound: C[C@]12CC[C@H]3C(=CCc4cc(O)ccc43)[C@@H]1CC[C@@H]2O [17β-dihydroequilin]
- Efficacy (%), Hepatic Lipase Inhibition [1]: 149%
- IC50 [2]: 469 nM

Compound: C[C@]12CC[C@@H]3c4ccc(O)cc4CC[C@H]3[C@@H]1CC[C@@H]2O [17β-estradiol]
- Efficacy (%), Hepatic Lipase Inhibition [1]: 100%
- IC50 [2]: 88 nM

Compound: C[C@]12CCC3=C(CCc4cc(O)ccc43)[C@@H]1CC[C@@H]2O [17β-Δ8,9-dehydroestradiol]
- Efficacy (%), Hepatic Lipase Inhibition [1]: 88%
- IC50 [2]: 12 nM

Compound: C[C@]12CCc3c(ccc4cc(O)ccc34)[C@@H]1CCC2=O [equilenin]
- IC50 (Homo sapiens, HepG2, read-out: IC50 (nM), Hepatic Lipase Inhibition): 38 nM
- Efficacy (%), Hepatic Lipase Inhibition [1]: 82%

Compound: C[C@]12CCC3=C(CCc4cc(O)ccc43)[C@@H]1CCC2=O [Δ8,9-dehydroestrone]
- Efficacy (%), Hepatic Lipase Inhibition [1]: 93%
- IC50 [2]: 10 nM

Source: patent US7521199B2, “Assay to identify estrogen receptor dependent ligands that regulate the hepatic lipase promoter” (Wyeth, priority 2000, dated 2009)
